Data: patent US6410792B1, “Amide derivatives and methods for using the same as selective neuropeptide Y receptor antagonists” (Bayer Corporation, priority 1997, dated 2002)
pIC50: −log10 of the molar value. Like-named read-outs stand apart in the source and are kept apart here.

What was measured:
[1] = target: T1, Human NPY5 receptor (Homo sapiens, UniProt Q15761); assay: Human NPY5 receptor binding assay ([125I]PYY, membrane protein)
T1 sequence (Q15761 1-445): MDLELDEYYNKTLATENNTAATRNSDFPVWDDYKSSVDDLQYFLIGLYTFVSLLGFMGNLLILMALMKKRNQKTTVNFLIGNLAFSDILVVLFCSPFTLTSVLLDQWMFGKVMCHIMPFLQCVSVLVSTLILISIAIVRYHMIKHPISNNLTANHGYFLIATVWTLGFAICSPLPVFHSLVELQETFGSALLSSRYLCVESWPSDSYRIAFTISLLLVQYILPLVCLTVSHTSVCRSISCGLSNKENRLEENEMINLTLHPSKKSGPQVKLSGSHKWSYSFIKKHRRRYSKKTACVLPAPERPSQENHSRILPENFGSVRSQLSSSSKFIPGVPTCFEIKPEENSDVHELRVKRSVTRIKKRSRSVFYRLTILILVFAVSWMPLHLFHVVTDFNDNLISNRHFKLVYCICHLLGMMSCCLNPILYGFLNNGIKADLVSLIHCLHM
Method in brief: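 Filter binding with membrane protein and porcine [125I]PYY at 75-100 pM, 2 h at room temperature; nonspecific binding set by 1 μM PYY.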

[2] = target: T2, Rat NPY5 receptor (Rattus norvegicus, UniProt Q63634); assay: Rat NPY5 receptor binding assay ([125I]PYY, membrane protein); conditions: [125I]PYY binding, read-out: rNPY5 IC50
T2 sequence (Q63634 1-445): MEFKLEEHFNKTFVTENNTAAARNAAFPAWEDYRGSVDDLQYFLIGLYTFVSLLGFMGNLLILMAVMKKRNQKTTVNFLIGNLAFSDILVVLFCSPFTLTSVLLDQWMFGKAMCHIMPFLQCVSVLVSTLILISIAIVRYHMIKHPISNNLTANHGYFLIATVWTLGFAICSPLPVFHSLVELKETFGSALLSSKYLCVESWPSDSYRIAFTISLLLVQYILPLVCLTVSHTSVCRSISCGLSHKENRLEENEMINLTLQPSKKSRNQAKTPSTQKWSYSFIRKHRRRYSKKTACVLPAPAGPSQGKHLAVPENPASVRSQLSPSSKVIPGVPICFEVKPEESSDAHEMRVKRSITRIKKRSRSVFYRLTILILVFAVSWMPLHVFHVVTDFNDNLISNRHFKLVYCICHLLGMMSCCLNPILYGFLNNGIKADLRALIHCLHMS
Protocol: C. Human and Rat NPY5 Receptor Binding Assays
Binding assays are performed on GF/C Millipore 96well plates pretreated with 0.02% polyethylenimine. The binding buffer is 25 mM Tris, 120 mM NaCl, 5 mM KCl, 1.2 mM KH2PO4, 2.5 mM CaCl2, 1.2 mM MgSO4, 0.1% BSA and 0.5 mg/ml bacitracin, pH 7.4. Samples consist of membrane protein, 75-100 pM [125I]PYY (porcine, NEN-DuPont) and drug dilution. Nonspecific binding is defined by 1 μM PYY. After a 2 hour incubation at room temperature with constant mixing, the samples are aspirated on a vacuum manifold, and rinsed with ice-cold binding buffer. The amount of radioactivity in each well is quantitated with either gamma counting or liquid scintillation.

[3] = target: T3, Y2 receptor (Homo sapiens, UniProt P49146); assay: Y2 receptor binding assay ([125I]PYY, membrane protein); conditions: [125I]PYY binding, membrane protein; read-out: hNPY2 IC50
T3 sequence (P49146 1-381): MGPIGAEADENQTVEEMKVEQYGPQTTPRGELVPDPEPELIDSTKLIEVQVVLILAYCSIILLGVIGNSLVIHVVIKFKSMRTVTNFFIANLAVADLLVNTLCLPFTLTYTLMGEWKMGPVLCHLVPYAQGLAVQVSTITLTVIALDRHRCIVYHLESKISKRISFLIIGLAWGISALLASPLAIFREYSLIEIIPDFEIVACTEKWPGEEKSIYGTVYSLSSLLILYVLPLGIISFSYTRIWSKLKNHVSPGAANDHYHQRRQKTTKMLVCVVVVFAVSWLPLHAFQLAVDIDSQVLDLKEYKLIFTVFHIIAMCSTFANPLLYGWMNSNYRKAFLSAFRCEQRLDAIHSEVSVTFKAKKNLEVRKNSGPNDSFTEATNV
Method in brief: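 Filtration binding with membrane protein and drug dilution, 2 h at room temperature with mixing, radioactivity counted by gamma or scintillation. Y2: 25 pM [125I]PYY in Krebs-Ringer bicarbonate pH 7.4 with 0.01% BSA, nonspecific by 1 μM NPY. Y4/PP1: 50 pM [125I]hPP in HEPES-buffered saline pH 7.4 with protease inhibitors and 0.3% BSA, nonspecific by 1 μM hPP.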

[4] = [125I]PYY binding, read-out: hNPY5 IC50

pIC50 [1, 4]	pIC50 [2]	pIC50 [3]	Compound	pIC50 ([1]; hNPY5 IC50, [125I]PYY binding)
6.52	6.52		COC(CNCC(=O)Nc1ccc(C(=O)c2ccccc2)cc1)OC [Compound 5, N-(4-Benzoyl-phenyl)-2-(2,2-dimethoxy-ethylamino)-acetamide]	
5.62		< 5.30	CC1(C)CC(C(N)=O)C(C)(C)N1CC(=O)Nc1ccc(C2CCCCC2)cc1 (stereo not shown) [Compound 114, 1-[(4-Cyclohexyl-phenylcarbamoyl)-methyl] 2,2,5,5-tetramethyl-pyrrolidine-3-carboxylic acid amide]	
5.02		< 5.30	COc1ccc(C(=O)C2CCN(CC(=O)Nc3ccc(C4CCCCC4)cc3)CC2)cc1 [Compound 116, N-(4-Cyclohexyl-phenyl)-2-[4-(4-methoxy-benzoyl)-piperidin-1-yl]-acetamide]	
5.52		< 5.30	O=C(CN1CCC[C@@H]1C(=O)O)Nc1ccc(C2CCCCC2)cc1 [Compound 117, (2R)-1-[(4-Cyclohexyl-phenylcarbamoyl)-methyl]-pyrrolidine-2-carboxylic acid]	
5.70		< 5.30	O=C(CN1CCCC1CO)Nc1ccc(C(=O)c2ccccc2)cc1 (stereo not shown) [Compound 118, N-(4-Benzoyl-phenyl)-2-(2-hydroxymethyl-pyrrolidin-1-yl)-acetamide]	
5.44		< 5.30	CC1(C)CC(C(N)=O)C(C)(C)N1CC(=O)Nc1ccc(C(=O)c2ccccc2)cc1 (stereo not shown) [Compound 119, 1-[(4-Benzoyl-phenylcarbamoyl)-methyl]-2,2,5,5-tetramethyl-pyrrolidine-3-carboxylic acid amide]	
7.02		< 5.30	O=C(CN1CCC(C(=O)c2ccc(F)cc2)CC1)Nc1ccc(C(=O)c2ccccc2)cc1 [Compound 121, N-(4-Benzoyl-phenyl)-2-[4-(4-fluoro-benzoyl)-piperidin-1-yl]-acetamide]	
5.00		< 5.30	COc1ccc(C(=O)C2CCN(CC(=O)Nc3ccc(C(=O)c4ccccc4)cc3)CC2)cc1 [Compound 122, N-(4-Benzoyl-phenyl)-2-[4-(4-methoxy-benzoyl)-piperidin-1-yl]-acetamide]	
6.04		< 5.30	NC(=O)C1CCCN1CC(=O)Nc1ccc(C(=O)c2ccccc2)cc1 (stereo not shown) [Compound 123, 1-[(4-Benzoyl-phenylcarbamoyl)-methyl]-pyrrolidine-2-carboxylic acid amide]	
6.37		< 5.30	O=C(CN1CCCC1C(O)(c1ccccc1)c1ccccc1)Nc1ccc(C(=O)c2ccccc2)cc1 (stereo not shown) [Compound 125, N-(4-Benzoyl-phenyl)-2-[2-(hydroxy-diphenyl-methyl)-pyrrolidin-1-yl]-acetamide]	
6.18	6.35		O=C(CNCc1ccco1)Nc1ccc(C2CCCCC2)cc1 [Compound 160, N-(4-Cyclohexyl-phenyl)-2-[(furan-2-ylmethyl)-amino]-acetamide]	
6.21	6.14		O=C(CNCc1ccco1)Nc1ccc(C(=O)c2ccccc2)cc1 [Compound 166, N-(4-Benzoyl-phenyl)-2-[(furan-2-ylmethyl)-amino]-acetamide]	
6.28	5.92		O=C(CNc1c(I)cc(C(=O)O)cc1I)Nc1ccc(C(=O)c2ccccc2)cc1 [Compound 171, 4-{[(4-Benzoyl-phenylcarbamoyl)-methyl]-amino)-3,5-diiodo-benzoic acid]	
5.70	6.04		O=C(CNC(CO)CO)Nc1ccc(C2CCCCC2)cc1 [Compound 173, N-(4-Cyclohexyl-phenyl)-2-(2-hydroxy-1-hydroxymethyl-ethylamino)-acetamide]	
6.21	6.08		O=C(CNCC1CC1)Nc1ccc(C2CCCCC2)cc1 [Compound 174, N-(4-Cyclohexyl-phenyl)-2-(cyclopropylmethyl-amino)-acetamide]	
< 5.00	< 5.00		O=C(CNCCO)Nc1ccc(C2CCCCC2)cc1 [Compound 176, N-(4-Cyclohexyl-phenyl)-2-(2-hydroxy-ethylamino)-acetamide]	
< 5.00	< 5.00		O=C1C=C(NCC(=O)Nc2ccc(C3CCCCC3)cc2)CCC1 [Compound 179, N-(4-Cyclohexyl-phenyl)-2-(3-oxo-cyclohex-1-enylamino)-acetamide]	
6.77	6.92		O=C(O)CC(NCC(=O)Nc1ccc(C2CCCCC2)cc1)C(F)(F)F (stereo not shown) [Compound 180, 3-{[(4-Cyclohexyl-phenylcarbamoyl)-methyl]-amino}-4,4,4-trifluoro-butyric acid]	
6.13	6.16		O=C(CNCC1CC1)Nc1ccc(C(=O)c2ccccc2)cc1 [Compound 184, N-(4-Benzoyl-phenyl)-2-(cyclopropylmethyl-amino)-acetamide]	
6.47	6.47		O=C(O)CC(NCC(=O)Nc1ccc(C(=O)c2ccccc2)cc1)C(F)(F)F (stereo not shown) [Compound 190, 3-{[(4-Benzoyl-phenylcarbamoyl)-methyl]-amino}-4,4,4-trifluoro-butyric acid]	
6.57	6.60		CNC1CCN(CC(=O)Nc2ccc(C3CCCCC3)cc2)C1 (stereo not shown) [Compound 193, N-(4-Cyclohexyl-phenyl)-2-(3-methylamino-pyrrolidin-1-yl)-acetamide]	
5.21		< 5.30	(2R,4R)-1-[(4-Benzoyl-phenylcarbamoyl)-methyl]-4-hydroxy-pyrrolidine-2-carboxylic acid [Compound 101]	
5.42		< 5.30	(2R,4R)-1-[(4-Cyclohexyl-phenylcarbamoyl)-methyl]-4-hydroxy-pyrrolidine-2-carboxylic acid [Compound 90]	
6.80		< 5.30	N-(4-Benzoyl-phenyl)-2-(4-benzyl-4-hydroxy-piperidin-1-yl)-acetamide [Compound 111]	

Compound	pIC50 [1, 4]	pIC50 [2]	pIC50 [3]	pIC50 ([1]; hNPY5 IC50, [125I]PYY binding)
C=C(C)[C@@H]1CN(CC(=O)Nc2ccc(C3CCCCC3)cc2)[C@H](C(=O)O)[C@@H]1CC(=O)O [Compound 115, (2S,3R,4R)-3-Carboxymethyl-1-[(4-cyclohexyl-phenylcarbamoyl)-methyl]-4-isopropenyl-pyrrolidine-2-carboxylic acid]			< 5.30	< 5.00
C=C(C)C1CN(CC(=O)Nc2ccc(C(=O)c3ccccc3)cc2)C(C(=O)O)C1CC(=O)O (stereo not shown) [Compound 120, 1-[(4-Benzoyl-phenylcarbamoyl)-methyl]-3-carboxymethyl-4-isopropenyl-pyrrolidine-2-carboxylic acid]			< 5.30	< 5.00
O=C(CNc1c(I)cc(C(=O)O)cc1I)Nc1ccc(C2CCCCC2)cc1 [Compound 165, 4-{[(4-Cyclohexyl-phenylcarbamoyl)-methyl]-amino)-3,5-diiodo-benzoic acid anion]	5.96	6.15		
N-(4-Benzoyl-phenyl)-2-[4-(4-bromo-phenyl)-4-hydroxy-piperidin-1-yl]-acetamide [Compound 89]	6.28		< 5.30	
N-(4-Cyclohexyl-phenyl)-2-[4-hydroxy-4-(3-trifluoromethyl-phenyl)-piperidin-1-yl]-acetamide [Compound 62]	6.38		< 5.30	
